According to US11179397B2, “Imidazopyrimidine derivatives” (Gilead Sciences, Inc., priority 2018, dated 2021):
pEC50, pIC50: −log10 of the molar value.

Columns and labels:
NCI-H358 cells = assay: NCI-H358 3D tumor spheroid growth inhibition; assay type: cell-based; settings: Homo sapiens, NCI-H358, 168 h, 3D spheroids, 7 days, 3D CellTiter Glo; cellular IC50 designated EC50; read-out: H358 EC50
Outline: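 Cells seeded at 1000/well in ultra-low-attachment plates at 37 °C, 5% CO2 to form spheroids, then incubated a further 7 days with compounds. Viability by 3D CellTiter Glo luminescence; % inhibition versus DMSO wells, with normalized cellular IC50 reported as EC50.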

[1] = molecular target: SHP-2 full length protein (Homo sapiens (Human), UniProt Q06124); assay: SHP-2 biochemical DiFMUP pseudosubstrate-fluorogenic assay; settings: 0.2 nM SHP-2, 1 μM IRS-1 activator peptide, 50 μM DiFMUP; read-out: SHP2 IC50
Outline: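 In-house recombinant full-length SHP-2 preincubated 90 min at room temperature with compounds (1:3 series, 10,000–0.005 nM), then DiFMUP substrate added at 50 μM final for 30 min more. Fluorescence normalised to DMSO wells (100%) and IC50 derived by curve fitting.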

Compound | pEC50 (NCI-H358 cells) | pIC50 [1]
Cc1nc(N2CCC3(CCC[C@H]3N)CC2)n2ccnc2c1-c1cccc(C(F)(F)F)c1 [Example 7, (R)-8-(7-methyl-8-(3-(trifluoromethyl)phenyl)imidazo[1,2-c]pyrimidin-5-yl)-8-azaspiro[4.5]decan-1-amine] | < 4.90 | 5.89
C[C@@H]1OCC2(CCN(c3ncc(Sc4cccc5nc(N)sc45)c4nccn34)CC2)[C@@H]1N [Example 100, (3S,4S)-8-(8-((2-aminobenzo[d]thiazol-7-yl)thio)imidazo[1,2-c]pyrimidin-5-yl)-3-methyl-2-oxa-8-azaspiro[4.5]decan-4-amine] | 6.85 | 8.17
C[C@@H]1OCC2(CCN(c3ncc(Sc4cccn5nccc45)c4nccn34)CC2)[C@@H]1N [Example 98, (3S,4S)-3-methyl-8-(8-(pyrazolo[1,5-a]pyridin-4-ylthio)imidazo[1,2-c]pyrimidin-5-yl)-2-oxa-8-azaspiro[4.5]decan-4-amine] | 6.60 | 7.80
Cc1nc(N2CCC3(CCC[C@H]3N)CC2)n2ccnc2c1-c1cnn(C)c1C [Example 13, (R)-8-(8-(1,5-dimethyl-1H-pyrazol-4-yl)-7-methylimidazo[1,2-c]pyrimidin-5-yl)-8-azaspiro[4.5]decan-1-amine] | 5.48 | 6.00
N[C@@H]1CCCC12CCN(c1ncc(-c3cccc(Cl)c3Cl)c3nccn13)CC2 [Example 52, (R)-8-(8-(2,3-dichlorophenyl)imidazo[1,2-c]pyrimidin-5-yl)-8-azaspiro[4.5]decan-1-amine] | < 4.90 | 6.55
CC1(N)CCN(c2ncc(Sc3cccc(Cl)c3Cl)c3nncn23)CC1 [Example 61, 1-(8-((2,3-dichlorophenyl)thio)-[1,2,4]triazolo[4,3-c]pyrimidin-5-yl)-4-methylpiperidin-4-amine] | 5.64 | 6.89
N[C@@H]1c2cccnc2CC12CCN(c1ncc(Sc3cccc(Cl)c3Cl)c3nccn13)CC2 [Example 146, (S)-1′-(8-((2,3-dichlorophenyl)thio)imidazo[1,2-c]pyrimidin-5-yl)-5,7-dihydrospiro[cyclopenta[b]pyridine-6,4′-piperidin]-5-amine] | 7.82 | 8.77
Cc1nc(N2CCC3(CCC[C@H]3N)CC2)n2ccnc2c1-c1cnc2ccccn12 [Example 15, (R)-8-(8-(imidazo[1,2-a]pyridin-3-yl)-7-methylimidazo[1,2-c]pyrimidin-5-yl)-8-azaspiro[4.5]decan-1-amine] | 5.49 | 6.46
C[C@@H]1OCC2(CCN(c3ncc(Sc4ccnc5ccsc45)c4nccn34)CC2)[C@@H]1N [Example 106, (3S,4S)-3-methyl-8-(8-(thieno[3,2-b]pyridin-7-ylthio)imidazo[1,2-c]pyrimidin-5-yl)-2-oxa-8-azaspiro[4.5]decan-4-amine] | 7.41 | 8.38
C[C@@H]1OCC2(CCN(c3ncc(Sc4cccc5ccccc45)c4nccn34)CC2)[C@@H]1N [Example 136, (3S,4S)-3-methyl-8-(8-(naphthalen-1-ylthio)imidazo[1,2-c]pyrimidin-5-yl)-2-oxa-8-azaspiro[4.5]decan-4-amine] | 6.89 | 8.37
C[C@@H]1OCC2(CCN(c3ncc(Sc4ncnc5ccccc45)c4nccn34)CC2)[C@@H]1N [Example 117, (3S,4S)-3-methyl-8-(8-(quinazolin-4-ylthio)imidazo[1,2-c]pyrimidin-5-yl)-2-oxa-8-azaspiro[4.5]decan-4-amine] | < 4.90 | < 5.00
Nc1nccc(Sc2cnc(N3CCC4(CC3)Cc3ncccc3[C@@H]4N)n3ccnc23)c1Cl [Example 149, (R)-1′-(8-((2-amino-3-chloropyridin-4-yl)thio)imidazo[1,2-c]pyrimidin-5-yl)-5,7-dihydrospiro[cyclopenta[b]pyridine-6,4′-piperidin]-5-amine] | 7.00 | 7.12
NC[C@H]1[C@H]2CN(c3ncc(Sc4cccc(Cl)c4Cl)c4nccn34)C[C@@H]12 [Example 42, ((1R,5S,6r)-3-(8-((2,3-dichlorophenyl)thio)imidazo[1,2-c]pyrimidin-5-yl)-3-azabicyclo[3.1.0]hexan-6-yl)methanamine] | 5.89 | 7.10

Other lines, results leading:

pEC50 (NCI-H358 cells) | pIC50 [1] | Compound
7.18 | 8.40 | C[C@@H]1OCC2(CCN(c3ncc(Sc4ccnc5sccc45)c4nccn34)CC2)[C@@H]1N [Example 102, (3S,4S)-3-methyl-8-(8-(thieno[2,3-b]pyridin-4-ylthio)imidazo[1,2-c]pyrimidin-5-yl)-2-oxa-8-azaspiro[4.5]decan-4-amine]
5.49 | 6.72 | NC1CC2CN(c3ncc(Sc4cccc(Cl)c4Cl)c4nccn34)CC2C1 (stereo not shown) [Example 40, 2-(8-((2,3-dichlorophenyl)thio)imidazo[1,2-c]pyrimidin-5-yl)octahydrocyclopenta[c]pyrrol-5-amine]
7.28 | 8.30 | C[C@@H]1OCC2(CCN(c3ncc(Sc4ccnc(N)c4Cl)c4nccn34)CC2)[C@@H]1N [Example 31, (3S,4S)-8-(8-((2-amino-3-chloropyridin-4-yl)thio)imidazo[1,2-c]pyrimidin-5-yl)-3-methyl-2-oxa-8-azaspiro[4.5]decan-4-amine]
6.26 | 7.52 | Cc1nc(N2CCC3(CCC[C@H]3N)CC2)n2ccnc2c1-c1ccc2cn[nH]c2c1 [Example 73, (R)-8-(8-(1H-indazol-6-yl)-7-methylimidazo[1,2-c]pyrimidin-5-yl)-8-azaspiro[4.5]decan-1-amine]
6.77 | 8.25 | Nc1nccc(Sc2cnc(N3CCC4(CCC[C@H]4N)CC3)n3ccnc23)c1Cl [Example 45, (R)-8-(8-((2-amino-3-chloropyridin-4-yl)thio)imidazo[1,2-c]pyrimidin-5-yl)-8-azaspiro[4.5]decan-1-amine]
6.17 | 7.05 | Cc1nc(N2CCC3(CCC[C@H]3N)CC2)n2ccnc2c1-c1ccccc1 [Example 5, (R)-8-(7-methyl-8-phenylimidazo[1,2-c]pyrimidin-5-yl)-8-azaspiro[4.5]decan-1-amine]
7.06 | 8.48 | CSc1c(Cl)cccc1Sc1cnc(N2CCC3(CC2)CO[C@@H](C)[C@H]3N)n2ccnc12 [Example 108, (3S,4S)-8-(8-((3-chloro-2-(methylthio)phenyl)thio)imidazo[1,2-c]pyrimidin-5-yl)-3-methyl-2-oxa-8-azaspiro[4.5]decan-4-amine]
5.41 | 6.17 | N[C@@H]1CCCC12CCN(c1ncc(Sc3cncc4ccccc34)c3nccn13)CC2 [Example 70, (R)-8-(8-(isoquinolin-4-ylthio)imidazo[1,2-c]pyrimidin-5-yl)-8-azaspiro[4.5]decan-1-amine]
6.00 | 7.12 | NC1CCCN(c2ncc(Sc3cccc(Cl)c3Cl)c3nccn23)CC1 (stereo not shown) [Example 56, 1-(8-((2,3-dichlorophenyl)thio)imidazo[1,2-c]pyrimidin-5-yl)azepan-4-amine]
7.51 | 8.51 | N[C@@H]1CCCC12CCN(c1ncc(Sc3ccnc(Cl)c3Cl)c3nccn13)CC2 [Example 46, (R)-8-(8-((2,3-dichloropyridin-4-yl)thio)imidazo[1,2-c]pyrimidin-5-yl)-8-azaspiro[4.5]decan-1-amine]
